Measurements from US20250235434A1, “RIFABUTIN ANALOGS FOR THE TREATMENT OF DISEASE” (BIOVERSYS AG, priority 2022, published 2025).
In brackets after ≈: the same amount, converted by molar mass. Read-outs that look alike come from different tables or passages of the source.

Key:
Assay type in all cases: cell-based
[1] = system: A. baumannii (HUMC1 strain); experiment: MIC by broth microdilution against A. baumannii; conditions: Acinetobacter baumannii, RPMI medium supplemented with 10% FCS, 35° C. for 20 hours, visual reading
[2] = system: S. aureus (UAMS-1625 strain); experiment: MIC by broth microdilution against S. aureus; conditions: Staphylococcus aureus, 20 h, read-out: MIC S. aureus
[3] = system: M. abscessus (ATCC 19977); experiment: MIC by broth microdilution against M. abscessus; conditions: Mycobacteroides abscessus
[4] = ATCC19977, 20 h, ATCC 19977, Middlebrook 7H9 broth with ADC supplement, visual reading, read-out: MIC M. abscessus

## CO[C@H]1/C=C/O[C@@]2(C)Oc3c(C)c(O)c4c(c3C2=O)C2=NC3(CCN(CC(C)C)CC3)NC2=C(NC(=O)/C(C)=C\C=C\[C@H](C)[C@H](O)[C@@H](C)[C@@H](O)[C@@H](C)[C@H](OC(=O)CN2CCCCC2)[C@@H]1C)C4=O [Compound 4]
[1]
  MIC: 0.004 µg/mL (≈ 0.0043 µM)
[2]
  MIC: 0.06 µg/mL (≈ 0.0645 µM)
[3]; [4]
  MIC: 4 µg/mL (≈ 4.3 µM)

## CO[C@H]1/C=C/O[C@@]2(C)Oc3c(C)c(O)c4c(c3C2=O)C2=NC3(CCN(CC(C)C)CC3)NC2=C(NC(=O)/C(C)=C\C=C\[C@H](C)[C@H](O)[C@@H](C)[C@@H](O)[C@@H](C)[C@H](OC(=O)CNCCCN2CCOCC2)[C@@H]1C)C4=O [Compound 11]
[1]
  MIC: 0.008 µg/mL (≈ 0.00809 µM)
[2]
  MIC: 0.06 µg/mL (≈ 0.0607 µM)
[3]; [4]
  MIC: 2 µg/mL (≈ 2.02 µM)

## CC[N+](CC)(CC)CC(=O)O[C@H]1[C@H](C)[C@H](O)[C@H](C)[C@@H](O)[C@@H](C)/C=C/C=C(/C)C(=O)NC2=C3NC4(CCN(CC(C)C)CC4)N=C3c3c(c(O)c(C)c4c3C(=O)[C@@](C)(O/C=C/[C@H](OC)[C@H]1C)O4)C2=O [Compound 36]
[1]
  MIC: ≤ 0.002 µg/mL
[2]
  MIC: 0.125 µg/mL
[3]; [4]
  MIC: 2 µg/mL

## CO[C@H]1/C=C/O[C@@]2(C)Oc3c(C)c(O)c4c(c3C2=O)C2=NC3(CCN(CC(C)C)CC3)NC2=C(NC(=O)/C(C)=C\C=C\[C@H](C)[C@H](O)[C@@H](C)[C@@H](O)[C@@H](C)[C@H](OC(=O)CN2CC(Nc3ccc(F)cc3)C2)[C@@H]1C)C4=O [Compound 31]
[1]
  MIC: 0.008 µg/mL (≈ 0.00791 µM)
[2]
  MIC: 0.06 µg/mL (≈ 0.0593 µM)
[3]; [4]
  MIC: 4 µg/mL (≈ 3.96 µM)

## CO[C@H]1/C=C/O[C@@]2(C)Oc3c(C)c(O)c4c(c3C2=O)C2=NC3(CCN(CC(C)C)CC3)NC2=C(NC(=O)/C(C)=C\C=C\[C@H](C)[C@H](O)[C@@H](C)[C@@H](O)[C@@H](C)[C@H](OC(=O)CNCCN2CCN(C)CC2)[C@@H]1C)C4=O [Compound 9]
[1]
  MIC: ≤ 0.002 µg/mL
[2]
  MIC: 0.06 µg/mL (≈ 0.0607 µM)
[3]; [4]
  MIC: 2 µg/mL (≈ 2.02 µM)

## CO[C@H]1/C=C/O[C@@]2(C)Oc3c(C)c(O)c4c(c3C2=O)C2=NC3(CCN(CC(C)C)CC3)NC2=C(NC(=O)/C(C)=C\C=C\[C@H](C)[C@H](O)[C@@H](C)[C@@H](O)[C@@H](C)[C@H](OC(=O)C[n+]2ccc(C)cc2)[C@@H]1C)C4=O [Compound 38]
[1]
  MIC: 0.004 µg/mL
[2]
  MIC: 0.25 µg/mL
[3]; [4]
  MIC: 2 µg/mL

## CO[C@H]1/C=C/O[C@@]2(C)Oc3c(C)c(O)c4c(c3C2=O)C2=NC3(CCN(CC(C)C)CC3)NC2=C(NC(=O)/C(C)=C\C=C\[C@H](C)[C@H](O)[C@@H](C)[C@@H](O)[C@@H](C)[C@H](OC(=O)CNCC2CCN(C)CC2)[C@@H]1C)C4=O [Compound 1]
[1]
  MIC: ≤ 0.002 µg/mL
[2]
  MIC: 0.06 µg/mL (≈ 0.0617 µM)
[3]; [4]
  MIC: 2 µg/mL (≈ 2.06 µM)

## CO[C@H]1/C=C/O[C@@]2(C)Oc3c(C)c(O)c4c(O)c(c(/C=N/N5CCN(C)CC5)c(O)c4c3C2=O)NC(=O)/C(C)=C\C=C\[C@H](C)[C@H](O)[C@@H](C)[C@@H](O)[C@@H](C)[C@H](OC(C)=O)[C@@H]1C [Rifampicin, reference compound]
[3]; ATCC19977, tested M. abscessus strains, read-out: MIC value on M. abscessus
  MIC: > 32 µg/mL

## CO[C@H]1/C=C/O[C@@]2(C)Oc3c(C)c(O)c4c(c3C2=O)C2=NC3(CCN(CC(C)C)CC3)NC2=C(NC(=O)/C(C)=C\C=C\[C@H](C)[C@H](O)[C@@H](C)[C@@H](O)[C@@H](C)[C@H](OC(=O)CNCCN2CCCCC2)[C@@H]1C)C4=O [Compound 8]
[1]
  MIC: ≤ 0.002 µg/mL
[2]
  MIC: 0.06 µg/mL (≈ 0.0617 µM)
[3]; [4]
  MIC: 1 µg/mL (≈ 1.03 µM)

## CO[C@H]1/C=C/O[C@@]2(C)Oc3c(C)c(O)c4c(c3C2=O)C2=NC3(CCN(CC(C)C)CC3)NC2=C(NC(=O)/C(C)=C\C=C\[C@H](C)[C@H](O)[C@@H](C)[C@@H](O)[C@@H](C)[C@H](OC(=O)C[n+]2ccccc2)[C@@H]1C)C4=O [Compound 37]
[1]
  MIC: 0.004 µg/mL
[2]
  MIC: 0.25 µg/mL
[3]; [4]
  MIC: 2 µg/mL

## CO[C@H]1/C=C/O[C@@]2(C)Oc3c(C)c(O)c4c(c3C2=O)C2=NC3(CCN(CC(C)C)CC3)NC2=C(NC(=O)/C(C)=C\C=C\[C@H](C)[C@H](O)[C@@H](C)[C@@H](O)[C@@H](C)[C@H](OC(=O)CN2CCC(N3CCn5ccnc5C3)CC2)[C@@H]1C)C4=O [Compound 30]
[1]
  MIC: ≤ 0.002 µg/mL
[2]
  MIC: 0.06 µg/mL (≈ 0.0571 µM)
[3]; [4]
  MIC: 1 µg/mL (≈ 0.951 µM)

## CO[C@H]1/C=C/O[C@@]2(C)Oc3c(C)c(O)c4c(c3C2=O)C2=NC3(CCN(CC(C)C)CC3)NC2=C(NC(=O)/C(C)=C\C=C\[C@H](C)[C@H](O)[C@@H](C)[C@@H](O)[C@@H](C)[C@H](OC(=O)CN2CC(n3cccc3)C2)[C@@H]1C)C4=O [Compound 32]
[1]
  MIC: 0.008 µg/mL (≈ 0.00827 µM)
[2]
  MIC: 0.03 µg/mL (≈ 0.031 µM)
[3]; [4]
  MIC: 2 µg/mL (≈ 2.07 µM)
